Reference: paper PMC11973094, “Formononetin and mizoribine inhibit Porcine Reproductive and Respiratory Syndrome Virus replication in vitro” (Frontiers in Nutrition, 2025)

Experiments:
[1] = system: Marc-145 cells; assay: Cytotoxicity (CC50) by CCK-8 assay in Marc-145 cells; assay type: cell-based; details: for Non-cytotoxic concentrations: Marc-145 and PAM cells, treatment durations shorter than 48 h
Experimental: Cells were treated in a 96-well plate using DMEM supplemented with 8% FBS. After achieving a monolayer formation, the cells were treated with multiple concentrations of the test compound, which were diluted in DMEM containing 2% FBS and added to six replicate wells. As a control, a blank solution consisting of 0.5% DMSO in DMEM was employed. […] Subsequently, the half-maximal cytotoxic concentrations (CC50) was measured following the protocol described in section 2.2 of our previous work ([18]). […] EC50 was determined by assessing PRRSV genomic expression levels after three freeze–thaw cycles, and results were plotted using GraphPad Prism 8.
(§1) Figure 2 Evaluating the cytotoxicity of FMN and MZR on Marc-145 and PAM Cells. (A,B) CC50 values for FMN in Marc-145 cells at 48 and 72 h, determined via the CCK-8 assay. (C,D) CC50 of FMN in PAM cells assessed at 48 and 72 h. (E,F) CC50 values for MZR in Marc-145 cells at 48 and 72 h. (G,H) CC50 for MZR in PAM cells, also measured at 48 and 72 h. (I) The antiviral activity of FMN against the PRRSV VR-2332 strain, evaluated via IFA. (J) Antiviral effectiveness of MZR against the VR-2332 strain, assessed using IFA. Control samples were treated with a matching volume of 0.4% DMSO in DMEM. Black dots within the figure symbolize individual data points from each independent experiment. IFA images are from three experimental replicates.

[2] = system: PRRSV VR-2332 strain; assay: Time-of-addition assay, Marc-145 cells infected with VR-2332 (MOI = 1); assay type: cell-based, Porcine Reproductive and Respiratory Syndrome Virus
From the text: The assay commenced with seeding cells into a 96-well plate, followed by their cultivation in DMEM supplemented with 8% FBS. Upon achieving a monolayer, the cells were infected with the VR-2332 strain of PRRSV at a multiplicity of infection (MOI) of 1. One hour after infection, the viral inoculum was discarded, and the cells were cleansed with ice-cold PBS. DMSO or various concentrations of FMN or MZR were then introduced to the culture at different time intervals, as depicted in Figure 1A. Thirty-six hours post-infection, the expression levels of PRRSV RNA were quantified using previously described methods.
Figure 1 Time-of-addition experiment with FMN or MZR. (A) This schematic diagram illustrates the classical experimental protocol for administering drugs at different time points. The experiment began with Marc-145 cells uniformly infected with VR-2332 (MOI = 1) at 0 h, followed by adding varying concentrations of FMN or MZR at specific times. (B,C) FMN or MZR was introduced at −4, 0, 2, 4, 8, and 16 h to examine their impact on various stages of PRRSV replication. All samples were collected for analysis 36 h post-infection. The colors of the bars in the figure correspond to the time points as detailed in (A). Each symbol represents an independent biological replicate. The p-values are indicated, with ‘ns’ denoting p > 0.1234. These values were calculated using one-way ANOVA with Dunnett’s multiple-comparison test, and a p-value less than 0.0332 was considered statistically significant.

[3] = system: PRRSV GSWW-18 strain; assay: Viral titer and gene expression of GSWW-18 strain in PAM cells; assay type: cell-based, Porcine Reproductive and Respiratory Syndrome Virus; details: 36 h
Experimental: (§2) Viral solutions were diluted in a 10-fold gradient. Aliquots of solutions containing varying concentrations of the virus (100 μL each) and DMEM with 2% FBS (100 μL) were added to each well. Add 100 μL of 2% FBS DMEM (without PRRSV) to the control wells. The plates were incubated for 4 days at 37°C in a humidified atmosphere with 5% CO2, after which the virus TCID50 values were calculated using the Reed and Muench formula. To evaluate PRRSV gene expression, we employed the relative quantitative Reverse Transcription Quantitative Polymerase Chain Reaction (qRT-PCR) technique. The resultant data were processed using Design & Analysis Software (Thermo, version 2.6.0) and normalized based on the 2^−ΔΔCt method. For the determination of viral copy numbers, absolute quantitative qRT-PCR was utilized, with sample normalization achieved by quantifying plasmid concentrations prior to the detection process. The specific methods are as described in section 2.4 of our previous paper ([18]). The upstream and downstream primers were: PRRSV 5’-[…]’ and 5’-[…]-3′; Marc-145-GAPDH 5’-[…]-3′ and 5’-[…]-3′; PAM-GAPDH 5’-TCTGGCAAAGTGGACATT-3′ and 5’-[…]-3′.
(§3) Figure 4 Inhibitory effects of FMN and MZR on GSWW-18 and GSWW-15 Strains. (A,C) Changes in PRRSV viral titers in PAM cells incubated with 20 μM of FMN or MZR for 36 h with the GSWW-18 strain. (B,D) Changes in PRRSV viral genome in PAM cells after 36 h of incubation with 20 μM of FMN or MZR with the GSWW-15 strain. The black dots in the figure represent the raw data from each independent experiment. p-values were calculated using one-way ANOVA with Dunnett’s multiple-comparison test. The p-value less than 0.03 was considered statistically significant. Error bars represent the mean ± SD.

[4] = system: PRRSV VR-2332 strain; assay: Viral titer (TCID50) and viral genome (qRT-PCR) of VR-2332 after 36-h incubation with the compounds; assay type: cell-based, Porcine Reproductive and Respiratory Syndrome Virus; details: for Correlation of concentration with relative expression of the PRRSV genome / Correlation of concentration with viral titer: 36-h incubation, linear fit slope m negative; for Concentrations effectively suppressing viral replication: dose-dependent inhibition
Experimental: as §2
Figure 3 Assessing the antiviral potency of FMN and MZR on PRRSV. This figure delineates the evaluation of FMN and MZR at varying concentrations for their antiviral effects on the VR-2332 strain. (A,C) Display the EC50 of FMN in PAM and Marc-145 cells, respectively. (B,D) Illustrate the EC50 of MZR in PAM and Marc-145 cells. (E,F) Show alterations in the viral titers of the VR-2332 strain post 36-h incubation with distinct concentrations of FMN or MZR. (G,H) Represent the viral genome changes under similar conditions. Each point in the figure corresponds to raw data from individual experiments. Linear fit slopes are marked in red. Error bars indicate the mean ± SD. TEXT PRINTED IN THE PICTURE: (A) FMN: PAM: EC50: 8.716; PAM: EC90: 223.542 | (B) MZR: PAM: EC50: 8.274; PAM: EC90: 19.945 | (C) FMN: Marc-145: EC50: 16.863; Marc-145: EC90: 104.819 | (D) MZR: Marc-145: EC50: 22.335; Marc-145: EC90: 63.856

[5] = system: PRRSV VR-2332 strain; assay: Antiviral EC50 against PRRSV VR-2332 in Marc-145 cells (PRRSV genomic expression); assay type: cell-based; details: Porcine reproductive and respiratory syndrome virus, MARC145, VR-2332 strain
Experimental: as §2
(§4) Cells were treated in a 96-well plate using DMEM supplemented with 8% FBS. After achieving a monolayer formation, the cells were treated with multiple concentrations of the test compound, which were diluted in DMEM containing 2% FBS and added to six replicate wells. As a control, a blank solution consisting of 0.5% DMSO in DMEM was employed. The cells treated with the compound were incubated at 37°C in a humidified atmosphere with 5% CO2 for 48 or 72 h. Subsequently, the half-maximal cytotoxic concentrations (CC50) was measured following the protocol described in section 2.2 of our previous work ([18]). For the determination of the half-maximal effective concentration (EC50), each concentration was tested in triplicate wells, using 0.4% DMSO as a blank control. EC50 was determined by assessing PRRSV genomic expression levels after three freeze–thaw cycles, and results were plotted using GraphPad Prism 8.

[6] = Cytotoxicity (CC50) by CCK-8 assay in PAM cells; assay type: cell-based, Porcine; details: pig
Experimental: as §4, with “For the determination of the half-maximal effective concentration (EC50), each concentration was tested in triplicate wells, using 0.4% DMSO as a blank control.” left out
as §1

[7] = system: PAM cells; assay: Cytotoxicity (CC50) by CCK-8 assay in PAM cells; assay type: cell-based, Porcine
Experimental: as §4, with “For the determination of the half-maximal effective concentration (EC50), each concentration was tested in triplicate wells, using 0.4% DMSO as a blank control.” left out
as §1

[8] = system: PRRSV GSWW-15 strain; assay: Viral titer and gene expression of GSWW-15 strain in PAM cells; assay type: cell-based, Porcine Reproductive and Respiratory Syndrome Virus; details: 36 h
Experimental: as §2, §3

[9] = system: PRRSV VR-2332 strain; assay: Indirect immunofluorescence assay (IFA) of VR-2332 in PAM cells; assay type: cell-based, Porcine Reproductive and Respiratory Syndrome Virus; details: within the safety range
Experimental: The following antibodies were used for IFA: Mouse Anti-SR30 (Rtilab, SR30-A) and Goat Anti-Mouse FITC (Bioss, bs-0368G-FITC). After virus inoculation, cells were fixed with 80% cold acetone according to previous experimental conditions for IFA ([18]). A Leica DMI6000 microscope was used for observation.
as §1

[10] = system: PRRSV VR-2332 strain; assay: Antiviral EC50 against PRRSV VR-2332 in PAM cells (PRRSV genomic expression); assay type: cell-based; details: Porcine reproductive and respiratory syndrome virus
Experimental: as §2, §4

[11] = added 16 h after infection, P > 0.1234
[12] = added in the initial stages post-infection, collected 36 h post-infection
[13] = lower concentrations added 8 h post-infection, P > 0.1234

Structure (SMILES)	Non-cytotoxic concentrations [1]	Effect on PRRSV replication (PRRSV RNA) [2, 11]	Effect on PRRSV replication (PRRSV RNA) [2, 12]	Effect on PRRSV replication (PRRSV RNA) [2, 13]	Gene expression levels [3]	Viral titers [3]	Correlation of concentration with relative expression of the PRRSV genome [4]	Correlation of concentration with viral titer [4]	Concentrations effectively suppressing viral replication [4]	EC50 [5]	EC50 ([5]; Figure 3, unit inferred)	EC90 ([5]; Figure 3, unit inferred)	Gene expression levels [8]	Viral titers [8]	Antiviral activity by IFA [9]	EC50 [10]	EC50 ([10]; Figure 3, unit inferred)	EC90 ([10]; Figure 3, unit inferred)	also measured
COc1ccc(-c2coc3cc(O)ccc3c2=O)cc1 [FMN, 7-hydroxy-3-(4-methoxyphenyl)-4H-chromen-4-one]	below 100 μM	entirely ineffective	pronounced antiviral activity	did not significantly impede PRRSV replication	dose-dependent inverse relationship	dose-dependent reduction	negatively correlated	negatively correlated	above 20 μM	~16.9 µM	16.9 µM	105 µM	dose-dependent inverse relationship	dose-dependent reduction	antiviral efficacy	~8.72 µM	8.72 µM	224 µM	CC50 at 72 h ([6]; 72 h, printed in the picture of Figure 2D, no unit): 52 µM; CC50 at 72 h ([6]; 72 h exposure): 52 µM; Cytotoxicity ([7]; 48 h): non-toxic
NC(=O)c1ncn([C@@H]2O[C@H](CO)[C@@H](O)[C@H]2O)c1O [MZR, 1-[(2R,3R,4S,5R)-3,4-dihydroxy-5-(hydroxymethyl)oxolan-2-yl]-5-hydroxy-1H-imidazole-4-carboxamide, reference compound]	below 100 μM	entirely ineffective	pronounced antiviral activity	did not significantly impede PRRSV replication	dose-dependent inverse relationship	dose-dependent reduction	negatively correlated	negatively correlated	above 20 μM	~22.3 µM	22.3 µM	63.9 µM	dose-dependent inverse relationship	dose-dependent reduction	antiviral efficacy	~8.27 µM	8.27 µM	19.9 µM	Cytotoxicity ([1]; Marc-145 cells, various concentrations, 48 and 72 h): minimal cytotoxicity; Cytotoxicity ([7]; treatment up to 72 h): negligible cytotoxicity
